Test results from patent US20220125765A1, “PHARMACEUTICAL COMBINATIONS COMPRISING MEBENDAZOLE AND A STRONG OR MODERATE CYP1A2 INHIBITOR” (ZEPHAPHARM LTD, priority 2019, published 2022).

Columns and labels:
SXFS 1301 = assay: 2D monolayer CellTiter-Blue viability, soft tissue sarcoma SXFS 1301; format: cell-based; conditions: 72 h
Protocol: (§1) Seventeen compounds, including mebendazole (Batch no. […] Efficacy of compounds was assessed using CellTiter-Blue® Cell Viability Assay. Anti-tumor activity is expressed as absolute and relative IC50 and IC70 values, calculated by non-linear regression analysis.

SXFO 678 = assay: 2D monolayer CellTiter-Blue viability, osteosarcoma SXFO 678; format: cell-based; conditions: 72 h
Protocol: as §1

CYP2C8 = target: T1, CYP2C8 (Homo sapiens, UniProt P10632); assay: Cytochrome P450 reaction phenotyping, recombinant CYP2C8 (Bactosomes)
T1 sequence (P10632 1-490): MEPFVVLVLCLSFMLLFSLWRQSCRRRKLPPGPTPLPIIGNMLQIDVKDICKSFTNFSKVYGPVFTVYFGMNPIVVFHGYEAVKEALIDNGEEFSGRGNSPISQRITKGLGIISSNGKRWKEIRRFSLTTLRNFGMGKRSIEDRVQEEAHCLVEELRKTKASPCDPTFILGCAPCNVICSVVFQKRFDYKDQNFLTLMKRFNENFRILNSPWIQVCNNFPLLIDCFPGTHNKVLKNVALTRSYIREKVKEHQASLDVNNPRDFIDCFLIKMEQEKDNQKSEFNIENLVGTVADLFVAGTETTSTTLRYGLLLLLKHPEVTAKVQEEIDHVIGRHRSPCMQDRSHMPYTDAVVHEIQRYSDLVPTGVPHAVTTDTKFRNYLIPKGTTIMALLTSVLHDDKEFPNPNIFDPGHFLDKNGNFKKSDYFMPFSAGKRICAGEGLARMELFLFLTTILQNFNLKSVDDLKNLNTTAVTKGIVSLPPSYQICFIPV
Protocol: Incubations were also performed using control Bactosomes™ (no P450 enzymes present) to reveal any non-enzymatic degradation. Control compounds known to be metabolised specifically by each P450 isoform were included. All incubations were performed singularly for each test compound.
Incubations were also performed using control Bactosomes™ (no P450 enzymes present) to reveal any non-enzymatic degradation. Control compounds known to be metabolised specifically by each P450 isoform were included. All incubations were performed singularly for each test compound. […] The reactions were stopped by transferring an aliquot of incubate to quench solvent at the appropriate time points, in a 1:3 ratio. The termination plates were centrifuged at 3,000 rpm for 20 min at 4° C. to precipitate the protein.

Q: Which “Test/Control (%) at Drug Concentration” value (SXFS 1301; SXFS 1301, 1.0E+00 μM) does the source give for `COC(=O)Nc1nc2ccc(C(=O)c3ccccc3)cc2[nH]1` [Mebendazole, methyl N-(6-benzoyl-1H-benzimidazol-2-yl)carbamate] here?
A: The value was 35%.

Q: What about the “Test/Control (%) at Drug Concentration” value (SXFS 1301; SXFS 1301, 1.0E+01 μM) of the same compound?
A: The value was 38%.

Q: What about the “Test/Control (%) at Drug Concentration” value (SXFS 1301; SXFS 1301, 1.0E+02 μM) of the same compound?
A: The value was 8%.

Q: And the “Test/Control (%) at Drug Concentration” value (SXFS 1301; SXFS 1301, 1.0E−01 μM)?
A: The value was 84%.

Q: And the “Test/Control (%) at Drug Concentration” value (SXFS 1301; SXFS 1301, 1.0E−02 μM)?
A: The value was 106%.

Q: And the “Test/Control (%) at Drug Concentration” value (SXFS 1301; SXFS 1301, 3.2E+00 μM)?
A: Its value is 33%.

Q: What about the “Test/Control (%) at Drug Concentration” value (SXFS 1301; SXFS 1301, 3.2E+01 μM) of the same compound?
A: The value was 36%.

Q: And the “Test/Control (%) at Drug Concentration” value (SXFS 1301; SXFS 1301, 3.2E−01 μM)?
A: The value was 55%.

Q: What about the “Test/Control (%) at Drug Concentration” value (SXFS 1301; SXFS 1301, 3.2E−02 μM) of the same compound?
A: Its value is 98%.

Q: What about the “Test/Control (%) at Drug Concentration” value (SXFS 1301; SXFS 1301, 3.2E−03 μM) of the same compound?
A: Its value is 101%.

Q: What about the “Test/Control (%) at Drug Concentration” value (SXFO 678; SXFO 678, 1.0E+00 μM) of the same compound?
A: The value was 11%.

Q: What about the “Test/Control (%) at Drug Concentration” value (SXFO 678; SXFO 678, 1.0E+01 μM) of the same compound?
A: The value was 28%.

Q: And the “Test/Control (%) at Drug Concentration” value (SXFO 678; SXFO 678, 1.0E+02 μM)?
A: The value was 11%.

Q: What about the “Test/Control (%) at Drug Concentration” value (SXFO 678; SXFO 678, 1.0E−01 μM) of the same compound?
A: The value was 64%.

Q: And the “Test/Control (%) at Drug Concentration” value (SXFO 678; SXFO 678, 1.0E−02 μM)?
A: The value was 87%.

Q: And the “Test/Control (%) at Drug Concentration” value (SXFO 678; SXFO 678, 3.2E+00 μM)?
A: Its value is 22%.

Q: And the “Test/Control (%) at Drug Concentration” value (SXFO 678; SXFO 678, 3.2E+01 μM)?
A: The value was 21%.

Q: And the “Test/Control (%) at Drug Concentration” value (SXFO 678; SXFO 678, 3.2E−01 μM)?
A: Its value is 14%.

Q: And the “Test/Control (%) at Drug Concentration” value (SXFO 678; SXFO 678, 3.2E−02 μM)?
A: Its value is 88%.

Q: And the “Test/Control (%) at Drug Concentration” value (SXFO 678; SXFO 678, 3.2E−03 μM)?
A: The value was 90%.

Q: And the “Compound Remaining (% of 0 min)” value (CYP2C8; CYP2C8, 5 μM, 0 min)?
A: The value was 100 % of 0 min.

Q: And the “Compound Remaining (% of 0 min)” value (CYP2C8; CYP2C8, 5 μM, 5 min)?
A: Its value is 90.6 % of 0 min.

Q: And the “Compound Remaining (% of 0 min)” value (CYP2C8; CYP2C8, 5 μM, 15 min)?
A: The value was 93.4 % of 0 min.

Q: And the “Compound Remaining (% of 0 min)” value (CYP2C8; CYP2C8, 5 μM, 30 min)?
A: Its value is 102 % of 0 min.

Q: What about the “Compound Remaining (% of 0 min)” value (CYP2C8; CYP2C8, 5 μM, 45 min) of the same compound?
A: Its value is 99.1 % of 0 min.

Q: What about the “% compound remaining” value (CYP2C8; CYP2C8, 5 μM, time not stated) of the same compound?
A: Its value is > 87.5%.

Q: What about the t1/2 (CYP2C8; CYP2C8, substrate 5 μM) of the same compound?
A: Its t1/2 is >2.25 h.

Q: And the half-life at 5 μM (CYP2C8; human, recombinant CYP2C8 (Bactosomes), pH 7.4)?
A: Its half-life at 5 μM is > 2.25 h.
